Where two headings read alike, the source gives them in different places.
What was measured:
[1] = tested on: peripheral blood-derived monocytes; test: MTT cytotoxicity assay with monocytes; format: cell-based, human; details: lower concentrations (less than 30 µM); MTT and LDH assays, Figure S3
Method: Human primary leukocytes were isolated from peripheral blood of healthy adult volunteers provided by the Institute of Transfusion Medicine at the University Hospital Greifswald as described before. All methods were performed in accordance with the Declaration of Helsinki. […] The remaining erythrocytes were removed by hypotonic lysis using water, and resulting polymorphonuclear neutrophils (PMNs) were resuspended in PBS containing 0.1% (w/v) glucose (PG buffer) or PG buffer with 1 mM CaCl2 (PGC buffer) as indicated.
Then, cells were incubated with 5 mg/mL MTT in PBS until the blue staining of the vehicle-containing control cells. Formazan formation was stopped by 100 µL of 10% (w/v in 20 mM HCl) SDS lysis buffer and followed by shaking overnight. Finally, absorbance was measured at 570 nm with a SpectraMax® i3x multi-mode detection platform (Molecular Devices, San Jose, CA, USA). The pan-protein kinase inhibitor staurosporine (1 µM) was used as a cytotoxic control inhibitor.

[2] = molecular target: T1, LTA4H (Homo sapiens, UniProt P09960); test: Isothermal titration calorimetry with LTA4H; format: binding; set-up: made in house; host or cells: Escherichia coli JM101; details: 25 mM Tris pH 7.8, 3% DMSO, 25 °C
T1 sequence (P09960 1-611): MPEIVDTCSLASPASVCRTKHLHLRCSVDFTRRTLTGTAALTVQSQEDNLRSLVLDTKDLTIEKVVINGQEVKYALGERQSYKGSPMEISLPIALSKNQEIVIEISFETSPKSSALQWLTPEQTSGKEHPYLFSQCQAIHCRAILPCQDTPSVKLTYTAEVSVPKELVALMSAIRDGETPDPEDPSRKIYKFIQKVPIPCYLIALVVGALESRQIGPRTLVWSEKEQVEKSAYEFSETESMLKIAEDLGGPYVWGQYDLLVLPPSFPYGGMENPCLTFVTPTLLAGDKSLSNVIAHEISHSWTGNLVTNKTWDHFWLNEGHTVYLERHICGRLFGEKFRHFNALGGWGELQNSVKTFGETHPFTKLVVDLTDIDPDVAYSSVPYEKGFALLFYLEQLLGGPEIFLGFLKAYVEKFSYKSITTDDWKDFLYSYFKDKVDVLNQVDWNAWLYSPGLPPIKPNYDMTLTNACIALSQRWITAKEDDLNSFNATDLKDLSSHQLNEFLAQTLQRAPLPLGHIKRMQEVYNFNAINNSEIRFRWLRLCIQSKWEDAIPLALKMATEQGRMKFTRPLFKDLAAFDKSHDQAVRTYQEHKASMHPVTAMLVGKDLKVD
Method: ITC was performed with an iTC200 calorimeter (MicroCal Inc., Northampton, MA, USA) equipped with a […] sample cell. Measurements were performed in 25 mM Tris-HCl pH 7.8 supplemented with 3% DMSO at 25 °C. […] After the ITC system was equilibrated, the initial injection of an inhibitor was performed in 0.5–1.0 µL followed by 15 injections in 2.5 µL. The time between each injection was 1.5–3.0 min to ensure the complete equilibration of the system. Collected data were analyzed by MicroCal PEAK-ITC Analysis Software. Control experiments were performed with identical conditions using only inhibitor, protein or buffer with 3% DMSO.

[3] = molecular target: T1, LTA4H; test: Peptidase assay of LTA4H with pNa and AMC conjugates; format: biochemical; set-up: made in house; host or cells: Escherichia coli JM101; details: for AC50: activation; for Specific activity of LTA4H with L-Ala-pNa in the presence of inhibitor: substrate L-Ala-pNa; for Specific activity of LTA4H with L-Ala-pNa in the presence of inhibitor / Specific activity of LTA4H with L-Arg-AMC in the presence of inhibitor / Specific activity of LTA4H with L-Arg-pNa in the presence of inhibitor / Specific activity of LTA4H with L-Leu-pNa in the presence of inhibitor / Specific activity of LTA4H with L-Pro-AMC in the presence of inhibitor / Specific activity of LTA4H with L-Pro-pNa in the presence of inhibitor / Specific activity of LTA4H with L-Val-pNa in the presence of inhibitor: mean ± SEM, n = 3; for Specific activity of LTA4H with L-Arg-AMC in the presence of inhibitor: substrate L-Arg-AMC; for Specific activity of LTA4H with L-Arg-pNa in the presence of inhibitor: substrate L-Arg-pNa; for Specific activity of LTA4H with L-Leu-pNa in the presence of inhibitor: substrate L-Leu-pNa; for Specific activity of LTA4H with L-Pro-AMC in the presence of inhibitor: substrate L-Pro-AMC; for Specific activity of LTA4H with L-Pro-pNa in the presence of inhibitor: substrate L-Pro-pNa; for Specific activity of LTA4H with L-Val-pNa in the presence of inhibitor: substrate L-Val-pNa; for fold change of specific activity with L-Arg-AMC / fold change of specific activity with L-Arg-pNa / fold change of specific activity with L-Pro-AMC: vs LTA4H without inhibitor (decrease); for fold change of specific activity with L-Ala-pNa / fold change of specific activity with L-Leu-pNa / fold change of specific activity with L-Val-pNa: vs LTA4H without inhibitor (increase)
Method: In addition, the aminopeptidase assay was performed with p-nitroanilide (pNa) and 7-amido-4-methylcoumarin (AMC) conjugates containing different N-terminal amino acids. Incubations were carried out with 1 μg LTA4H and 1 mM pNa substrates or 5 µM AMC substrates in 400 μL 10 mM Tris-HCl pH 7.8 containing 100 mM KCl at room temperature for 30 min. The absorbance of released pNa was measured after every 5 min at 405 nm using a TECAN Infinite M200 plate reader. The measurements with AMC derivatives were carried out using a black polystyrene 96-well plate and the fluorescence of released AMC at 360 nm/460 nm (ex/em) was recorded. Specific activities were calculated based on the standard curves of free pNA and AMC (Figure S10). The activation (AC50) or inhibition constants (IC50) were determined using the non-linear regression approach in the GraphPad Prism 9 program.

[4] = mean ± SEM, n = 4, read-out: dissociation constant (Kd) by ITC
[5] = read-out: dissociation constant (Kd) by ITC
[6] = 5 µM L-Arg-AMC, read-out: IC50, peptidase activity with L-Arg-AMC
[7] = 5 µM L-Pro-AMC, read-out: IC50, peptidase activity with L-Pro-AMC
[8] = 1 mM L-Arg-pNa, read-out: IC50, peptidase activity with L-Arg-pNa
[9] = 1 mM L-Lys-pNa, read-out: IC50, peptidase activity with L-Lys-pNa
[10] = 1 mM L-Ala-pNa, read-out: AC50, peptidase activity with L-Ala-pNa
[11] = 1 mM L-Leu-pNa, read-out: AC50, peptidase activity with L-Leu-pNa
[12] = 1 mM L-Val-pNa, read-out: AC50, peptidase activity with L-Val-pNa

## Nc1nc(-c2ccc(Cc3ccccc3)cc2)cs1 [ARM1, 4-(4-benzylphenyl) thiazol-2-amine, reference compound]
[1]
  safety in human leukocytes (cytotoxicity assays): safe
[2]; [4]
  Kd: 248 ± 53.2 nM
[2]; [5]
  Kd: 250 nM
[3]; [6]
  IC50: 330 ± 90 nM
[3]; [7]
  IC50: 300 ± 70 nM
[3]; [8]
  IC50: 360 ± 60 nM
[3]; [9]
  IC50: 1060 ± 240 nM
[3]; [10]
  AC50: 180 ± 40 nM
[3]; [11]
  AC50: 480 ± 50 nM
[3]; [12]
  AC50: 230 ± 20 nM
[3]
  Specific activity of LTA4H with L-Ala-pNa in the presence of inhibitor: 79.6 ± 7.6 µmol/µg/min
  Specific activity of LTA4H with L-Arg-AMC in the presence of inhibitor: 10.1 ± 0.1 µmol/µg/min
  Specific activity of LTA4H with L-Arg-pNa in the presence of inhibitor: 0.20 ± 0.03 µmol/µg/min
  Specific activity of LTA4H with L-Leu-pNa in the presence of inhibitor: 46.3 ± 1.7 µmol/µg/min
  Specific activity of LTA4H with L-Pro-AMC in the presence of inhibitor: 16.0 ± 0.2 µmol/µg/min
  Specific activity of LTA4H with L-Pro-pNa in the presence of inhibitor: 2.65 ± 0.12 µmol/µg/min
  Specific activity of LTA4H with L-Val-pNa in the presence of inhibitor: 24.9 ± 0.8 µmol/µg/min

## Nc1nc(-c2ccc(Cc3ccccc3)cc2)co1 [TTO, 4-(4-benzylphenyl) oxazol-2-amine]
[1]
  safety in human leukocytes (cytotoxicity assays): safe
[2]; [4]
  Kd: 326 ± 29.4 nM
[2]; [5]
  Kd: 330 nM
[3]; [6]
  IC50: 440 ± 140 nM
[3]; [7]
  IC50: 310 ± 50 nM
[3]; [8]
  IC50: 460 ± 50 nM
[3]; [9]
  IC50: 890 ± 710 nM
[3]; [10]
  AC50: 280 ± 40 nM
[3]; [11]
  AC50: 560 ± 60 nM
[3]; [12]
  AC50: 210 ± 20 nM
[3]; in parentheses, vs LTA4H without inhibitor
  fold change of specific activity with L-Pro-pNa: 1.3 x
[3]; in parentheses
  fold change of specific activity with L-Arg-AMC: 3 x
  fold change of specific activity with L-Arg-pNa: 89 x
  fold change of specific activity with L-Pro-AMC: 2 x
  fold change of specific activity with L-Ala-pNa: 9 x
  fold change of specific activity with L-Leu-pNa: 12 x
  fold change of specific activity with L-Val-pNa: 30 x
[3]
  Specific activity of LTA4H with L-Ala-pNa in the presence of inhibitor: 93.0 ± 1.7 µmol/µg/min
  Specific activity of LTA4H with L-Arg-AMC in the presence of inhibitor: 9.9 ± 0.1 µmol/µg/min
  Specific activity of LTA4H with L-Arg-pNa in the presence of inhibitor: 0.2 ± 0.1 µmol/µg/min
  Specific activity of LTA4H with L-Leu-pNa in the presence of inhibitor: 46.9 ± 1.7 µmol/µg/min
  Specific activity of LTA4H with L-Pro-AMC in the presence of inhibitor: 15.8 ± 0.2 µmol/µg/min
  Specific activity of LTA4H with L-Pro-pNa in the presence of inhibitor: 2.3 ± 0.2 µmol/µg/min
  Specific activity of LTA4H with L-Val-pNa in the presence of inhibitor: 24.4 ± 0.4 µmol/µg/min

## Nc1nc(-c2ccc(Cc3ccccc3)cc2)c[se]1 [TTSe, 4-(4-benzylphenyl) selenazol-2-amine]
[1]
  safety in human leukocytes (cytotoxicity assays): safe
[2]; dissociation constant (Kd) by ITC
  Kd: 370 nM
[2]; dissociation constant (Kd) by ITC, mean ± SEM, n = 4
  Kd: 367 ± 10.7 nM
[3]; AC50, peptidase activity with L-Ala-pNa, 1 mM L-Ala-pNa
  AC50: 210 ± 30 nM
[3]; AC50, peptidase activity with L-Leu-pNa, 1 mM L-Leu-pNa
  AC50: 520 ± 50 nM
[3]; AC50, peptidase activity with L-Val-pNa, 1 mM L-Val-pNa
  AC50: 270 ± 30 nM
[3]; IC50, peptidase activity with L-Arg-AMC, 5 µM L-Arg-AMC
  IC50: 380 ± 90 nM
[3]; IC50, peptidase activity with L-Arg-pNa, 1 mM L-Arg-pNa
  IC50: 490 ± 100 nM
[3]; IC50, peptidase activity with L-Lys-pNa, 1 mM L-Lys-pNa
  IC50: 1010 ± 360 nM
[3]; IC50, peptidase activity with L-Pro-AMC, 5 µM L-Pro-AMC
  IC50: 250 ± 20 nM
[3]; in parentheses
  fold change of specific activity with L-Arg-AMC: 3 x
  fold change of specific activity with L-Arg-pNa: 94 x
  fold change of specific activity with L-Pro-AMC: 2 x
  fold change of specific activity with L-Ala-pNa: 9 x
  fold change of specific activity with L-Leu-pNa: 10 x
  fold change of specific activity with L-Val-pNa: 30 x
[3]
  Specific activity of LTA4H with L-Ala-pNa in the presence of inhibitor: 88.0 ± 4.6 µmol/µg/min
  Specific activity of LTA4H with L-Arg-AMC in the presence of inhibitor: 10.1 ± 0.1 µmol/µg/min
  Specific activity of LTA4H with L-Arg-pNa in the presence of inhibitor: 0.20 ± 0.07 µmol/µg/min
  Specific activity of LTA4H with L-Leu-pNa in the presence of inhibitor: 37.6 ± 1.1 µmol/µg/min
  Specific activity of LTA4H with L-Pro-AMC in the presence of inhibitor: 15.7 ± 0.2 µmol/µg/min
  Specific activity of LTA4H with L-Pro-pNa in the presence of inhibitor: 2.8 ± 0.1 µmol/µg/min
  Specific activity of LTA4H with L-Val-pNa in the presence of inhibitor: 24.6 ± 0.5 µmol/µg/min
